Assay results reported in ChEMBL document CHEMBL1132509, “Aminoisoquinolines: design and synthesis of an orally active benzamidine isostere for the inhibition of factor XA” (Bioorg Med Chem Lett, 1999).

What was measured:
[1] = Maximum concentration in plasma was reported at 0.5 hour; format: ADME, organism-based; conditions: read-out: CPmax
Coagulation factor X = Coagulation factor X (Bos taurus, UniProt P00743); experiment: In vitro evaluation of inhibitory activity against Coagulation factor X in prothrombinase complex
Coagulation factor X, sequence (P00743 41-180 limits assumed): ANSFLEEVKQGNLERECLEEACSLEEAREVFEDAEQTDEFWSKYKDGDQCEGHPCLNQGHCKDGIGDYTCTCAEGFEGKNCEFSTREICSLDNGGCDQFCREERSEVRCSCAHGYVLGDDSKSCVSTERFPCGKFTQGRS
Coagulation factor X, sequence (P00743 234-492 limits assumed): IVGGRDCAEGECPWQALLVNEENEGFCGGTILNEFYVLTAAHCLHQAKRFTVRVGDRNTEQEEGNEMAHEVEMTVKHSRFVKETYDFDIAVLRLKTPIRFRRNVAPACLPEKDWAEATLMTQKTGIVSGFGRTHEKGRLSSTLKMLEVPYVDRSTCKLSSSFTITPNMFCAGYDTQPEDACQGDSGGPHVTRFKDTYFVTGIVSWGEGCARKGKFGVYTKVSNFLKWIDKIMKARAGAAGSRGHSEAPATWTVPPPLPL

[2] = pKa value was determined.; format: physicochemical
Prothrombin = Prothrombin (Homo sapiens, UniProt P00734); experiment: In vitro evaluation of inhibitory activity against Coagulation factor II in prothrombinase complex
Serine protease 1 = Serine protease 1 (Homo sapiens, UniProt P07477); experiment: In vitro evaluation of inhibitory activity against trypsin
Serine protease 1, sequence (P07477 whole entry): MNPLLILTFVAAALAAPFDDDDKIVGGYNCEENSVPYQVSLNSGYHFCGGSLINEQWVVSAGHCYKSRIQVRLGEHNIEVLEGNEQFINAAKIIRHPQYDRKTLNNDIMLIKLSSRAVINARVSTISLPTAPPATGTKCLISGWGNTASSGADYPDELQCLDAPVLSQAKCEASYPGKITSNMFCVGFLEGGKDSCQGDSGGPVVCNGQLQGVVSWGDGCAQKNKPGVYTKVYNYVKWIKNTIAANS

[3] = Ratio of inhibitory activity against activated protein C to that of factor Xa
[4] = Ratio of inhibitory activity against plasminogen activator to that of factor Xa
[5] = Ratio inhibitory activity against coagulation factor IIa to that of factor Xa
[6] = Ratio of inhibitory activity against […] to that of factor Xa
[7] = Ratio of inhibitory activity against Plasmin to that of factor Xa
[8] = Maximum concentration in plasma was reported at 2 hour; format: ADME, organism-based; conditions: read-out: CPmax

Row | Compound | Ki (Coagulation factor X) [nM] | pKa [2] | Ki (Prothrombin) [nM] | Ki (Serine protease 1) [nM] | further results
1 | COc1ccc2ccc(S(=O)(=O)N(C)[C@H]3CCN(Cc4csc(C(=N)N)c4)C3=O)cc2c1 |  |  |  |  | Cmax [1]: 3100 nM
2 | COc1ccc2ccc(S(=O)(=O)NC3CCN(Cc4ccc5nc(N)ccc5c4)C3=O)cc2c1 (stereo not drawn) | 1200 | 7.3 | > 4000 | > 2900 | 
3 | COc1ccc2ccc(S(=O)(=O)N[C@H]3CCN(Cc4ccc5ccnc(O)c5c4)C3=O)cc2c1 | > 1200 |  |  |  | 
4 | COc1ccc2ccc(S(=O)(=O)N[C@H]3CCN(Cc4cccc(C(=N)N)c4)C3=O)cc2c1 |  | 11.6 |  | 850 | 
5 | COc1ccc2ccc(S(=O)(=O)N[C@H]3CCN(Cc4cc(C(=N)N)ccc4N)C3=O)cc2c1 | 6 |  |  |  | 
6 | COc1ccc2ccc(S(=O)(=O)N(C)[C@H]3CCN(Cc4ccc5ncnc(N)c5c4)C3=O)cc2c1 | 1600 | 5.3 | > 4000 | > 2900 | 
7 | Nc1nccc2ccc(CN3CC[C@H](NS(=O)(=O)c4cc5ncccc5s4)C3=O)cc12 |  |  |  |  | Ratio [3]: > 841; Ratio [4]: > 395; Ratio [5]: > 181; Ratio [6]: > 131; Ratio [7]: > 330; Cmax [8]: 2700 nM
8 | N=C(N)c1cccc(CN2CC[C@H](NS(=O)(=O)c3cc4ncccc4s3)C2=O)c1 | 26 |  |  |  | Ratio [3]: 440; Ratio [4]: > 335; Ratio [5]: > 150; Ratio [6]: > 110; Ratio [7]: > 280
9 | COc1ccc2ccc(S(=O)(=O)NC3CCN(Cc4ccc5ccc(N)nc5c4)C3=O)cc2c1 (stereo not drawn) | 370 | 7.3 | ~4000 | > 2900 | 

Second part, led by results:

Row | Ki (Coagulation factor X) [nM] | pKa [2] | Ki (Prothrombin) [nM] | Ki (Serine protease 1) [nM] | Compound | further results
10 | 250 |  | ~4000 | > 2900 | COc1ccc2ccc(S(=O)(=O)NC3CCN(Cc4cc5c(N)nccc5s4)C3=O)cc2c1 (stereo not drawn) | 
11 | > 1200 |  |  |  | COc1ccc2ccc(S(=O)(=O)N[C@H]3CCN(Cc4ccc5ccnc(Cl)c5c4)C3=O)cc2c1 | 
12 | 80 |  |  |  | COc1ccc2ccc(S(=O)(=O)N[C@H]3CCN(Cc4cc5c(N)nccc5cc4N)C3=O)cc2c1 | 
13 |  | 7.6 | 1350 | > 2900 | COc1ccc2ccc(S(=O)(=O)N[C@H]3CCN(Cc4ccc5ccnc(N)c5c4)C3=O)cc2c1 | 
14 | 890 |  |  |  | COc1ccc2ccc(S(=O)(=O)N[C@H]3CCN(Cc4cc5c(N)nccc5cc4OC)C3=O)cc2c1 | 
